# Assay results as given in patent US8084203B2, “Methods for the determination of telomere length in a semi-automatic manner of every single cell in a immobilized cell population” (Fundacion Centro Nacional de Investigaciones Oncologicas …, priority 2008, dated 2011).
# System: epidermal stem cell
# From the text: Unless otherwise specified, all mice used in this study were males of approximately 2 months of age and from a C57BL6 genetic background. Mice of a FVB genetic background (2 months-old) were also used in Supplementary FIG. S1. Generation and characteristics of the Terc−/− and the K15-EGFP mice were previously described (Morris et al., 2004; Blasco et al., 1997).
# To induce epidermal stem cell “mobilization” (activation, migration and proliferation), tail skin in the telogen (resting) phase of the hair cycle was topically treated every 48 h with TPA (20 nmol in acetone) for a total of four doses. Control mice of each genotype were treated with acetone alone. 24-hours after the last TPA treatment, mice were sacrificed and the tail skin analysed.
# For telomere length analyses, samples from mouse tail and back skin, small intestine, cornea, testis and brain were harvested and fixed o/n in neutralbuffered formalin at 4° C., dehydrated through graded alcohols and xylene, and embedded in paraffin. Prior to embedding, dissected skin was cut parallel to the spine in order to obtain longitudinal hair follicle sections. The intestinal tract was flushed with PBS and rolled up in a compact circle using longitudinally oriented jejunal sections for analysis. For cornea and testis analyses, whole eyes and testis were cut in half prior to dehydration. Finally, brain was coronal-dissected to harvest the rostral hippocampus. In all cases, […] sections were used for QFISH and immunostaining analyses.
# For Q-FISH, paraffin-embedded tissue sections were hybridized with a PNA-tel Cy3-labelled probe and telomere length was determined as described (González-Suárez et al., 2000; Muñoz et al., 2005; Zijlmans et al., 1997). Slides were deparaffinized in three xylene washes (3 m each), then treated for 3 m with a 100, 95 and 70% ethanol series, followed by telomere Q-FISH protocol performed as described (Samper et al., 2000). DAPI, Cy3 signals were acquired simultaneously into separate channels using a confocal ultraspectral microscope (Leica TCS-SP2-A-OBS-UV) using a PL APO 20×/0.70 PH2 as lens with Leica LCS software and maximum projections from image stacks (10 sections at steps 1.0 μm) were generated for image quantification. The DPSS-561 laser (Cy3 laser) was hold at a constant intensity to capture all the mouse tissues images.
# High throughput quantitative image analysis was performed on confocal images using the Metamorph platform (version 6.3r6; Molecular Devices, Union City, Calif.). The DAPI image was used to define the nuclear area and the Cy3 image to quantify of telomere fluorescence. In all cases, background noise was subtracted from each image prior to making […] measurements. The DAPI images were signal-intensity thresholded, segmented and converted to 1-bit binary image. The binary DAPI mask was applied to the matching Cy3 to obtain a combined image with telomere fluorescence information for each
# nucleus. Cy3 fluorescence intensity (telomere fluorescence) was measured as “average gray values” (total gray value/nuclei area) units (arbitrary units of fluorescence). These “average telomere fluorescence” values always represent the average Cy3 pixel intensity for the total nuclear area, and not the average value of individual telomere spot intensities, therefore ruling out that differences in nuclear size may influence telomere length measurements. A code of four colours was used to classify the nuclei according to their average telomere fluorescence. Telomere fluorescence ranges were initially set up to allocate in each range roughly ¼ of the total cells of a given tissue in wild type mice of 2 months of age. […] Telomere fluorescence ranges of a given tissue obtained in this manner were then maintained constant between genotypes, treatment and ages to facilitate comparisons.
# [1] = wild-type mice, TPA-treated vs untreated, FIG. 1d, significant
# [2] = wild-type mice, upon TPA treatment, FIG. 6
smiles,measurement,setting,value
CCCCCCCCCCCCCC(=O)O[C@@H]1[C@@H](C)[C@@]2(O)[C@@H](C=C(CO)C[C@]3(O)C(=O)C(C)=C[C@@H]23)[C@H]2C(C)(C)[C@]12OC(C)=O [TPA],percentage of cells with the longest telomeres at the TA compartments and the interfollicular epidermis,"telomerase-deficient G1 Terc-/- mice, TPA-treated skin, FIG. 1c,d",did not show increased percentage
same,percentage of cells with the longest telomeres at the hair bulge,"telomerase-deficient G1 Terc-/- mice, TPA-treated vs untreated skin, FIG. 1c",reduction
same,total number of epidermal cells showing the longest telomeres,"telomerase-deficient G1 Terc-/- mice, TPA-treated vs untreated skin, P<0.01, FIG. 1e",decreased
same,frequency of long telomeres in all hair follicle compartments (telomere length histograms),"telomerase-deficient G1 Terc-/- mice, TPA-treated, FIG. 6",decreased frequency of long telomeres
same,total number of epidermal cells showing 1800-3000 a.u. of telomere fluorescence,"wild-type mice, TPA-treated vs untreated skin, P<0.05, FIG. 1e",significantly increased
same,cells with the longest telomeres in the TA compartments (hair bulb and infundibulum),"wild-type mice, TPA-treated vs untreated tail skin",accumulation
same,percentage of the cells with the longest telomeres at the hair bulge,"wild-type mice, TPA-treated vs untreated tail skin, longest telomeres = 1800-3000 a.u. telomere fluorescence",decreased
same,absolute number of cells containing the longest telomeres at the hair bulge,[1],decreased at the hair bulge
same,absolute number of cells containing the longest telomeres in the other epidermal compartments,[1],concomitantly increased
same,frequency of long telomeres in hair bulge cells (telomere length histograms),[2],decreased frequency of long telomeres
same,telomere length in cells located at the TA compartment and the interfollicular epidermis (telomere length histograms),[2],increased telomere length
